Measurements reported in patent US4552879A, “Benzoheterocyclic compounds and pharmaceutical composition thereof” (Otsuka Pharmaceutical Co., Ltd., priority 1980, dated 1985).
Values after ≈ are worked out from the molar mass of the structure shown. Like-named read-outs stand apart in the source and are kept apart here.

Assays:
Assay in all cases: Minimum inhibitory concentration, serial dilution method on agar plate
Assay type in all cases: cell-based
Shigella sonnei EW 33 = test system: Shigella sonnei EW 33
Method: The antimicrobial activity of the following test compounds on various test organisms listed below was determined by the serial dilution method on agar plate (Heart Infusion agar produced by Difco Co.) (see CHEMOTHERAPY 22, pp. 1126-1128 (1974)), and the minimum inhibitory concentrations (mcg/ml) obtained are shown in Tables 1, 2 and 3 below.
A sample of each test organism was prepared so that the population of the organism was 1×10^8 cells/ml (O.D. 660 mμ=0.07 to 0.16) and 1×10^6 cells/ml (which was obtained by diluting 100 fold the above 1×10^8 cells/ml preparation).

[1] = test system: Pseudomonas aeruginosa ATCC 10145; details: Pseudomonas aeruginosa, read-out: Minimum Inhibitory Concentration
Pseudomonas putida 12996 = details: read-out: Minimum Inhibitory Concentration
[2] = test system: Staphylococcus aureus FDA 209 P; details: Staphylococcus aureus, read-out: Minimum Inhibitory Concentration
[3] = test system: Serratia marcescens IFO 12648; details: read-out: Minimum Inhibitory Concentration
Proteus rettgeri NIH 96 = details: Providencia rettgeri
[4] = test system: Pseudomonas aeruginosa E-2; details: Pseudomonas aeruginosa, read-out: Minimum Inhibitory Concentration
[5] = test system: Escherichia Coli NIHJ JC-2 (IFO 12734)
[6] = test system: Salmonella typhi 0-901 (NCTC 8393); details: Salmonella enterica
Klebsiella pneumoniae = test system: Klebsiella pneumoniae
[7] = test system: Streptococcus pyogenes IID S-23; details: Streptococcus pyogenes, read-out: Minimum Inhibitory Concentration
[8] = Pseudomonas putida, 12996, 1×10^6 cells/ml
[9] = Pseudomonas putida, 12996, 1×10^8 cells/ml
[10] = NIH96, 1×10^6 cells/ml, read-out: Minimum Inhibitory Concentration
[11] = NIH96, read-out: Minimum Inhibitory Concentration, 1×10^8 cells/ml
[12] = read-out: Minimum Inhibitory Concentration, 1×10^6 cells/ml
[13] = read-out: Minimum Inhibitory Concentration, 1×10^8 cells/ml
[14] = NIH96, read-out: Minimum Inhibitory Concentration, 1×10^6 cells/ml
[15] = 1×10^6 cells/ml, read-out: Minimum Inhibitory Concentration
[16] = 1×10^8 cells/ml, read-out: Minimum Inhibitory Concentration
[17] = NIH96, 1×10^8 cells/ml, read-out: Minimum Inhibitory Concentration

SMILES | MIC (Shigella sonnei EW 33; EW33, 1×10^6 cells/ml) [µg/mL] | MIC (Shigella sonnei EW 33; EW33, 1×10^8 cells/ml) [µg/mL] | MIC ([1]; ATCC10145, 1×10^6 cells/ml) [µg/mL] | MIC ([1]; ATCC10145, 1×10^8 cells/ml) [µg/mL] | MIC (Pseudomonas putida 12996; [8]) [µg/mL] | MIC (Pseudomonas putida 12996; [9]) [µg/mL] | MIC ([2]; FDA209, 1×10^6 cells/ml) [µg/mL] | MIC ([2]; FDA209, 1×10^8 cells/ml) [µg/mL] | MIC ([3]; IFO12648, 1×10^6 cells/ml) [µg/mL] | MIC ([3]; IFO12648, 1×10^8 cells/ml) [µg/mL] | MIC (Proteus rettgeri NIH 96; [10]) [µg/mL] | MIC (Proteus rettgeri NIH 96; [11]) [µg/mL] | MIC ([4]; E2, 1×10^6 cells/ml) [µg/mL] | MIC ([4]; E2, 1×10^8 cells/ml) [µg/mL] | MIC [5, 12] [µg/mL] | MIC [5, 13] [µg/mL] | MIC [6, 12] [µg/mL] | MIC [6, 13] [µg/mL] | MIC ([7]; IIDS23, 1×10^6 cells/ml) [µg/mL] | MIC ([7]; IIDS23, 1×10^8 cells/ml) [µg/mL] | other results
CC1CCc2c(N3CCOCC3)c(F)cc3c(=O)c(C(=O)O)cn1c23 (stereo not shown) [Compound 2, 9-Fluoro-8-morpholino-5-methyl-6,7-dihydro-1-oxo-1H,5H-benzo[ij]quinolizine-2-carboxylic acid] | 0.1 (≈ 0.289 µM) | 0.1 (≈ 0.289 µM) | 3.13 (≈ 9.04 µM) | 3.13 (≈ 9.04 µM) | 3.13 (≈ 9.04 µM) | 6.25 (≈ 18 µM) | 0.025 (≈ 0.0722 µM) | 0.05 (≈ 0.144 µM) | 0.39 (≈ 1.13 µM) | 0.78 (≈ 2.25 µM) | 0.05 (≈ 0.144 µM) | 0.1 (≈ 0.289 µM) | 3.13 (≈ 9.04 µM) | 6.25 (≈ 18 µM) | 0.1 (≈ 0.289 µM) | 0.2 (≈ 0.577 µM) | 0.05 (≈ 0.144 µM) | 0.1 (≈ 0.289 µM) | 0.78 (≈ 2.25 µM) | 0.78 (≈ 2.25 µM) | MIC (Klebsiella pneumoniae; [12]): 0.2 µg/mL (≈ 0.577 µM); MIC (Klebsiella pneumoniae; [13]): 0.2 µg/mL (≈ 0.577 µM)
CC(=O)OC1CCN(c2c(F)cc3c(=O)c(C(=O)O)cn4c3c2CCC4C)CC1 (stereo not shown) [Compound 3, 9-Fluoro-8-(4-acetyloxy-1-piperidyl)-5-methyl-6,7-dihydro-1-oxo-1H,5H-benzo[ij]quinolizine-2-carboxylic acid] | 0.2 (≈ 0.497 µM) | 0.2 (≈ 0.497 µM) | 3.13 (≈ 7.78 µM) | 6.25 (≈ 15.5 µM) | 6.25 (≈ 15.5 µM) | 6.25 (≈ 15.5 µM) | 0.05 (≈ 0.124 µM) | 0.05 (≈ 0.124 µM) | 1.56 (≈ 3.88 µM) | 3.13 (≈ 7.78 µM) |  | 0.2 (≈ 0.497 µM) | 6.25 (≈ 15.5 µM) | 6.25 (≈ 15.5 µM) |  |  | 0.1 (≈ 0.248 µM) | 0.1 (≈ 0.248 µM) | 0.78 (≈ 1.94 µM) | 0.78 (≈ 1.94 µM) | MIC (Proteus rettgeri NIH 96; [14]): 0.2 µg/mL (≈ 0.497 µM); MIC [5, 15]: 0.39 µg/mL (≈ 0.969 µM); MIC [5, 16]: 0.39 µg/mL (≈ 0.969 µM); MIC (Klebsiella pneumoniae; [15]): 0.39 µg/mL (≈ 0.969 µM); MIC (Klebsiella pneumoniae; [16]): 0.39 µg/mL (≈ 0.969 µM)
CC1CCc2c(N3CCCCC3)c(F)cc3c(=O)c(C(=O)O)cn1c23 (stereo not shown) [Compound 4, 9-Fluoro-8-(1-piperidyl)-5-methyl-6,7-dihydro-1-oxo-1H,5H-benzo[ij]quinolizine-2-carboxylic acid] | 0.78 (≈ 2.26 µM) | 0.78 (≈ 2.26 µM) | 12.5 (≈ 36.3 µM) | 12.5 (≈ 36.3 µM) | 25 (≈ 72.6 µM) | 25 (≈ 72.6 µM) | 0.05 (≈ 0.145 µM) | 0.05 (≈ 0.145 µM) | 6.25 (≈ 18.1 µM) | 12.5 (≈ 36.3 µM) | 1.56 (≈ 4.53 µM) |  | 12.5 (≈ 36.3 µM) | 25 (≈ 72.6 µM) |  |  | 0.39 (≈ 1.13 µM) | 0.39 (≈ 1.13 µM) | 0.78 (≈ 2.26 µM) | 1.56 (≈ 4.53 µM) | MIC (Proteus rettgeri NIH 96; [17]): 1.56 µg/mL (≈ 4.53 µM); MIC [5, 15]: 1.56 µg/mL (≈ 4.53 µM); MIC [5, 16]: 1.56 µg/mL (≈ 4.53 µM); MIC (Klebsiella pneumoniae; [15]): 1.56 µg/mL (≈ 4.53 µM); MIC (Klebsiella pneumoniae; [16]): 1.56 µg/mL (≈ 4.53 µM)
CC1CCc2c(N3CCC(N(C)C)CC3)c(F)cc3c(=O)c(C(=O)O)cn1c23 (stereo not shown) [Compound 5, 9-Fluoro-8-(4-dimethylamino-1-piperidyl)-5-methyl-6,7-dihydro-1-oxo-1H,5H-benzo[ij]quinolizine-2-carboxylic acid] | 0.2 (≈ 0.516 µM) | 0.2 (≈ 0.516 µM) | 3.13 (≈ 8.08 µM) | 6.25 (≈ 16.1 µM) | 6.25 (≈ 16.1 µM) | 6.25 (≈ 16.1 µM) | 0.05 (≈ 0.129 µM) | 0.05 (≈ 0.129 µM) | 0.78 (≈ 2.01 µM) | 1.56 (≈ 4.03 µM) |  |  | 6.25 (≈ 16.1 µM) | 6.25 (≈ 16.1 µM) | 0.2 (≈ 0.516 µM) | 0.2 (≈ 0.516 µM) | 0.2 (≈ 0.516 µM) | 0.2 (≈ 0.516 µM) | 0.39 (≈ 1.01 µM) | 0.78 (≈ 2.01 µM) | MIC (Proteus rettgeri NIH 96; [17]): 0.39 µg/mL (≈ 1.01 µM); MIC (Proteus rettgeri NIH 96; [14]): 0.2 µg/mL (≈ 0.516 µM); MIC (Klebsiella pneumoniae; [12]): 0.1 µg/mL (≈ 0.258 µM); MIC (Klebsiella pneumoniae; [13]): 0.2 µg/mL (≈ 0.516 µM)
